# pIC50: −log10 of the molar value. Active and inactive are the calls of the source. The rule behind the calls is not given here.
# Experiments:
# [1] = target: T1, ALK tyrosine kinase receptor (Homo sapiens, UniProt Q9UM73); details: 20 to 200 nM
# Description: Inhibition of ALK phosphorylation at Y1278 residue in human SU-DHL1 cells at 20 to 200 nM after 1 hr by Western blot analysis
# [2] = target: T1, ALK tyrosine kinase receptor; details: 20 to 200 nM; remark: listed apart in the source
# Description: Inhibition of ALK in human SU-DHL1 cells assessed as reduction in STAT3 phosphorylation at Y705 residue at 20 to 200 nM after 1 hr by Western blot analysis
# [3] = target: T1, ALK tyrosine kinase receptor; details: 20 to 200 nM; remark: listed apart in the source
# Description: Inhibition of ALK in human SU-DHL1 cells assessed as reduction in Akt phosphorylation at S473 residue at 20 to 200 nM after 1 hr by Western blot analysis
# [4] = target: T1, ALK tyrosine kinase receptor; details: 20 to 200 nM; remark: listed apart in the source
# Description: Inhibition of ALK in human SU-DHL1 cells assessed as reduction in ERK phosphorylation at T202//Y204 residues at 20 to 200 nM after 1 hr by Western blot analysis
# [5] = target: T1, ALK tyrosine kinase receptor; details: NCI-H3122, 20 to 200 nM
# Description: Inhibition of ALK phosphorylation at Y1278 residue in human NCI-H3122 cells at 20 to 200 nM after 1 hr by Western blot analysis
# [6] = target: T1, ALK tyrosine kinase receptor; details: NCI-H3122, 20 to 200 nM; remark: listed apart in the source
# Description: Inhibition of ALK in human NCI-H3122 cells assessed as reduction in STAT3 phosphorylation at Y705 residue at 20 to 200 nM after 1 hr by Western blot analysis
# [7] = target: T1, ALK tyrosine kinase receptor; details: NCI-H3122, 20 to 200 nM; remark: listed apart in the source
# Description: Inhibition of ALK in human NCI-H3122 cells assessed as reduction in Akt phosphorylation at S473 residue at 20 to 200 nM after 1 hr by Western blot analysis
# [8] = target: T1, ALK tyrosine kinase receptor; details: NCI-H3122, 20 to 200 nM; remark: listed apart in the source
# Description: Inhibition of ALK in human NCI-H3122 cells assessed as reduction in ERK phosphorylation at T202//Y204 residues at 20 to 200 nM after 1 hr by Western blot analysis
# [9] = test system: NCI-H3122; experiment: cells; details: Homo sapiens, NCI-H3122, 72 h
# Description: Antiproliferative activity against human NCI-H3122 cells after 72 hrs by SRB or CCK8 assay
# [10] = test system: SU-DHL-1; experiment: cells; details: Homo sapiens, SU-DHL-1, 72 h
# Description: Antiproliferative activity against human SU-DHL1 cells harboring NPM-ALK after 72 hrs by SRB or CCK8 assay
# [11] = test system: KARPAS-299; experiment: cells; details: Homo sapiens, KARPAS-299, 72 h
# Description: Antiproliferative activity against human KARPAS299 cells harboring NPM-ALK after 72 hrs by SRB or CCK8 assay
# [12] = test system: BaF3; experiment: cells; details: Mus musculus, BaF3, 72 h
# Description: Antiproliferative activity against mouse BAF3 cells harboring EML4-ALK after 72 hrs by SRB or CCK8 assay
# [13] = test system: BaF3; experiment: cells; details: Mus musculus, BaF3, 72 h; remark: listed apart in the source
# [14] = test system: BaF3; experiment: cells; details: Mus musculus, BaF3, 72 h; remark: listed apart in the source
# [15] = test system: HCC78; experiment: cells; details: Homo sapiens, HCC78, 72 h
# Description: Antiproliferative activity against human HCC78 cells harboring SLC34A2-ROS1 after 72 hrs by SRB or CCK8 assay
# [16] = test system: BaF3; experiment: cells; details: Mus musculus, BaF3, 72 h; remark: listed apart in the source
# Description: Antiproliferative activity against mouse BAF3 cells harboring CD74-ROS1 after 72 hrs by SRB or CCK8 assay
# [17] = test system: BaF3; experiment: cells; details: Mus musculus, BaF3, 72 h; remark: listed apart in the source
# Description: Antiproliferative activity against mouse BAF3 cells harboring CD74-ROS1 G2032R mutant after 72 hrs by SRB or CCK8 assay
# [18] = test system: BaF3; experiment: cells; details: Mus musculus, BaF3, 72 h; remark: listed apart in the source
# Description: Antiproliferative activity against IL3-stimulated mouse BAF3 cells after 72 hrs by SRB or CCK8 assay
# [19] = target: ALK tyrosine kinase receptor (Homo sapiens, UniProt Q9UM73, G1202R)
# [20] = target: T1, ALK tyrosine kinase receptor
# [21] = target: ALK tyrosine kinase receptor (Homo sapiens, UniProt Q9UM73, T1151M)
# [22] = target: ALK tyrosine kinase receptor (Homo sapiens, UniProt Q9UM73, S1206Y)
# [23] = target: ALK tyrosine kinase receptor (Homo sapiens, UniProt Q9UM73, R1275Q)
# [24] = target: ALK tyrosine kinase receptor (Homo sapiens, UniProt Q9UM73, L1152R)
# [25] = test system: NCI-H3122; experiment: Induction of apoptosis in human NCI-H3122 cells at 20 to 80 nM after 48 hrs by Annexin V-FITC/propidium iodide staining based flow cytometry; assay type: functional, cell-based
# [26] = test system: SU-DHL-1; experiment: Induction of apoptosis in human SU-DHL1 cells at 20 to 80 nM after 48 hrs by Annexin V-FITC/propidium iodide staining based flow cytometry; assay type: functional, cell-based
pIC50 [9],pIC50 [19],pIC50 [20],SMILES,other results
7.02,,,Cc1cc(Nc2ncc(Cl)c(Nc3ccccc3S(=O)(=O)C(C)C)n2)c(OC(C)C)cc1C1CCNCC1 [CERITINIB],inhibition [1]: Active; inhibition [2]: Active; inhibition [3]: Active; inhibition [4]: Active; inhibition [5]: Active; inhibition [6]: Active; inhibition [7]: Active; inhibition [8]: Active; pIC50 [10]: 6.91; pIC50 [11]: 7.08; pIC50 [12]: 7.97; pIC50 [13]: 7.26; pIC50 [14]: 6.14; pIC50 [15]: < 6.00; pIC50 [16]: 6.63; pIC50 [17]: < 6.00; pIC50 [18]: < 6.00
8.14,7.81,9.00,CC(C)c1cc(C(=O)NCC(=O)Nc2ccc(F)c(Nc3ncc(Cl)c(Nc4ccccc4S(=O)(=O)C(C)C)n3)c2)c(O)cc1O,
7.16,,8.48,CC(C)Oc1ccc(NC(=O)CNC(=O)c2cc(C(C)C)c(O)cc2O)cc1Nc1ncc(Cl)c(Nc2ccccc2S(=O)(=O)C(C)C)n1,
6.91,,8.38,CC(C)Oc1ccc(NC(=O)CNC(=O)c2cc(C(C)C)c(O)cc2O)cc1Nc1nccc(Nc2ccccc2S(=O)(=O)C(C)C)n1,
6.60,,6.89,COc1ccc(NC(=O)C2(NC(=O)c3cc(C(C)C)c(O)cc3O)CC2)cc1Nc1ncc(Cl)c(Nc2ccccc2S(=O)(=O)C(C)C)n1,
< 6.00,,8.59,COc1ccc(Nc2ncc(Cl)c(Nc3ccccc3S(=O)(=O)C(C)C)n2)cc1NC(=O)CNC(=O)c1cc(C(C)C)c(O)cc1O,
8.17,,9.15,COc1ccc(NC(=O)C(C)NC(=O)c2cc(C(C)C)c(O)cc2O)cc1Nc1ncc(Cl)c(Nc2ccccc2S(=O)(=O)C(C)C)n1 (stereo not given),
< 6.00,,< 6.00,COc1ccc(NC(=O)C(NC(=O)c2cc(C(C)C)c(O)cc2O)C(C)C)cc1Nc1ncc(Cl)c(Nc2ccccc2S(=O)(=O)C(C)C)n1 (stereo not given),
7.24,7.19,8.11,COc1ccc(NC(=O)C(Cc2ccccc2)NC(=O)c2cc(C(C)C)c(O)cc2O)cc1Nc1ncc(Cl)c(Nc2ccccc2S(=O)(=O)C(C)C)n1 (stereo not given),
7.89,,7.32,COc1ccc(NC(=O)CNC(=O)c2cc(C(C)C)c(O)cc2OC)cc1Nc1ncc(Cl)c(Nc2ccccc2S(=O)(=O)C(C)C)n1,
8.11,,,C[C@H]1Oc2cc(cnc2N)-c2c(nn(C)c2C#N)CN(C)C(=O)c2ccc(F)cc21 [LORLATINIB],pIC50 [10]: 8.31; pIC50 [11]: 8.52; pIC50 [12]: 8.54; pIC50 [13]: 7.37; pIC50 [14]: 6.70; pIC50 [15]: 6.45; pIC50 [16]: 8.92; pIC50 [17]: 6.58; pIC50 [18]: < 6.00
7.86,,7.98,COc1ccc(NC(=O)CNC(=O)c2cc(C(C)C)c(OC)cc2O)cc1Nc1ncc(Cl)c(Nc2ccccc2S(=O)(=O)C(C)C)n1,
< 6.00,,6.58,CC(C)c1cc(C(=O)NCC(=O)Nc2cccc(Nc3ncc(Cl)c(Nc4cc(S(=O)(=O)C(C)C)nn4C)n3)c2)c(O)cc1O,
7.19,,8.89,COc1ccc(NC(=O)CNC(=O)c2cc(C(C)C)c(O)cc2O)cc1Nc1ncnc(Nc2ccccc2S(=O)(=O)C(C)C)n1,
7.08,,9.10,CC(C)c1cc(C(=O)NCC(=O)Nc2cccc(Nc3ncc(Cl)c(Nc4ccccc4S(=O)(=O)C(C)C)n3)c2)c(O)cc1O,
8.40,7.82,9.15,COc1ccc(NC(=O)CNC(=O)c2cc(C(C)C)ccc2O)cc1Nc1ncc(Cl)c(Nc2ccccc2S(=O)(=O)C(C)C)n1,
8.16,8.74,8.77,COc1ccc(NC(=O)CNC(=O)c2cc(C(C)C)c(O)cc2O)cc1Nc1ncc(Cl)c(Nc2ccccc2S(=O)(=O)C(C)C)n1,pIC50 [21]: 8.66; pIC50 [22]: 8.29; pIC50 [23]: 8.57; pIC50 [24]: 7.97; Activity [25]: Active; Activity [26]: Active; pIC50 [10]: 8.32; pIC50 [11]: 7.98; pIC50 [12]: > 8.82; pIC50 [13]: > 8.82; pIC50 [14]: > 8.82; pIC50 [15]: > 8.82; pIC50 [16]: 9.70; pIC50 [17]: 9.70; pIC50 [18]: < 6.00
7.00,8.11,8.82,COc1ccc(NC(=O)CNC(=O)c2cc(C(C)C)c(O)cc2O)cc1Nc1ncc(Cl)c(Nc2ccccc2P(C)(C)=O)n1,
< 6.00,,< 6.00,COc1cc(OC)c(C(C)C)cc1C(=O)NCC(=O)Nc1cccc(Nc2ncc(Cl)c(Nc3ccccc3S(=O)(=O)C(C)C)n2)c1,
8.04,8.21,8.85,COc1ccc(NC(=O)CNC(=O)c2ccc(O)c(C(C)C)c2)cc1Nc1ncc(Cl)c(Nc2ccccc2S(=O)(=O)C(C)C)n1,

# — ChEMBL document CHEMBL4145454, “Discovery of 2,4-diarylaminopyrimidines bearing a resorcinol motif as novel ALK inhibitors to overcome the G1202R resistant mutation” (Eur J Med Chem, 2018)
